SMILES strings stand for the structures. Where two headings read alike, the source gives them in different places.

The target of one data set is T1, AKT1 (Homo sapiens, UniProt P31749).
T1 construct: purchased Millipore
As to the kind of experiment: AKT1 biochemical kinase assay (FP iMAP). As to the method: (§1) Biochemical analysis was performed using kinases obtained from Millipore (AKT1, ∆AKT1, ∆AKT2, ∆AKT3) and Signal Chem (AKT2 and AKT3). […] (Molecular Devices) against the three isoforms of AKT and their PH domain null mutants. Compounds were dissolved in DMSO prior to screening at 14 point titration series in the range (50 µM–50 pM). Fluorescence polarisation was measured using a Biotek Synergy 4 Hybrid microplate reader. Percentage inhibition of kinase activity was calculated and IC50 values derived using non-linear regression on GraphPad Prism. Competition of ALM301 with ATP was determined using AKT1 under increasing ATP concentrations up to 1000 µM.

The target in a further data set is T2, AKT2 (Homo sapiens, UniProt P31751).
T2 construct: purchased Signal Chem
T2 sequence (P31751 whole entry): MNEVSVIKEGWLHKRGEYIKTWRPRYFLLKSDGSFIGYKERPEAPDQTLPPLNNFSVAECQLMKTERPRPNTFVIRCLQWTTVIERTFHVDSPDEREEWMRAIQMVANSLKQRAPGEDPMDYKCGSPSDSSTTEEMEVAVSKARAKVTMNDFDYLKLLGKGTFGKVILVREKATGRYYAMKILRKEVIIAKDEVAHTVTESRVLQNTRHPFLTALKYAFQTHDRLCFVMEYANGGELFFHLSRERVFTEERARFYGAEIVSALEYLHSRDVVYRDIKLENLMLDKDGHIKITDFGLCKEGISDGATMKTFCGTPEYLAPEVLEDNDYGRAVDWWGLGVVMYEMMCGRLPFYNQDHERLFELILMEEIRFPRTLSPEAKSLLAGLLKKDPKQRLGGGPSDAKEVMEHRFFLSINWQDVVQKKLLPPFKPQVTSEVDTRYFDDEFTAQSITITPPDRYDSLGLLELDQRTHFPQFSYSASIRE
As to the kind of experiment: AKT2 biochemical kinase assay (FP iMAP). As for the experimental part:
as §1

The next data set relates to ∆AKT1. Nature of the data set: PH domain null AKT1 biochemical kinase assay (FP iMAP). As to the method:
(§2) Biochemical analysis was performed using kinases obtained from Millipore (AKT1, ∆AKT1, ∆AKT2, ∆AKT3) and Signal Chem (AKT2 and AKT3). The specific activity of AKT 1,2 and 3 was determined to be 114 nmol/min/mg, 44 nmol/min/mg and 200 nmol/min/mg respectively as per activity assay protocol. ALM301 was profiled using the Fluorescent Polarisation (FP) iMAP Screening Express kit (Molecular Devices) using the FAM-Crosstide substrate [5FAM-[…]-OH] (Molecular Devices) against the three isoforms of AKT and their PH domain null mutants. Compounds were dissolved in DMSO prior to screening at 14 point titration series in the range (50 µM–50 pM). Fluorescence polarisation was measured using a Biotek Synergy 4 Hybrid microplate reader. Percentage inhibition of kinase activity was calculated and IC50 values derived using non-linear regression on GraphPad Prism. Competition of ALM301 with ATP was determined using AKT1 under increasing ATP concentrations up to 1000 µM.

Another data set has as its system ∆AKT2. Nature of the data set: PH domain null AKT2 biochemical kinase assay (FP iMAP). As to the method: as §2
Data set [1] concerns pGSK3β in PC3 prostate cancer cells. Nature of the data set: pGSK3β ELISA in PC3 cells. It counts as cell-based. As to conditions: Homo sapiens, PC-3; PC3 cells, 24 h. As to the method: (§3) Cells were then washed with PBS and lysed. The subsequent supernatant was assayed using a GSK3β (pS9) (Invitrogen, Life Technologies) ELISA. Phospho-AKT levels were detected using the phospho-AKT (S473) immunoassay (R&D Systems) as per manufacturer’s protocol. Percentage inhibition of phosphorylation status was calculated by comparing phospho-AKT levels to total AKT levels with each treatment and IC50 values derived using non-linear regression on GraphPad Prism.

A further data set is described as follows: LogD7.4 assay. The data set is classed as physicochemical. The settings on record: octanol/PBS buffer; octanol/PBS pH 7.4. As for the experimental part: Compounds (100 µM) were shaken at 300 rpm at room temperature for 4 h in a biphasic system of octanol and PBS buffer pH 7.4 in a 96-well plate in triplicate. The relative drug concentration in each phase was then determined by the peak area measurement from LC-UV analysis on an Agilent 1260 chromatography instrument (UV detection at 254 nm and 220 nm). LogD is calculated as follows: LogD = Log[peak area of compound in octanol x injection volume of buffer phase/peak area of compound in buffer x injection volume of octanol phase].

A short description of data set [2]: In vitro microsomal stability, mouse. The data set is classed as in vitro ADME. The settings on record: pH 7.4; mouse liver microsomes; read-out: mouse LM CLint. As for the experimental part: Compounds (final concentration = 1 µM; final DMSO concentration = 0.1%) were incubated in 0.1 M phosphate buffer at pH 7.4 with liver microsomes (human, mouse, rat or dog; 0.5 mg of protein/mL) at 37 °C. Reactions were started by addition of NADPH in 0.1 M phosphate buffer pH 7.4 (final concentration 1 mM). Reactions were quenched by addition of ice-cold methanol and frozen. The supernatants were analysed by LC/MS/MS on a Waters Acquity I-Class coupled to a Waters Xevo TQD mass spectrometer. A Waters BEH C18 2.1 × 50 mm 1.7 µm column was used and mobile phases consisted of water and methanol containing 0.1% formic acid as modifier. Analysis was by multiple reaction monitoring and conditions were optimised for each test compound.
For orientation: Liver microsomes are a subcellular fraction often used to study metabolism.

In the next data set the target is CYP 2D6 (Homo sapiens, UniProt P10635). As to the kind of experiment: CYP2D6 inhibition. It counts as in vitro ADME.
CYP 2D6, sequence (P10635 whole entry): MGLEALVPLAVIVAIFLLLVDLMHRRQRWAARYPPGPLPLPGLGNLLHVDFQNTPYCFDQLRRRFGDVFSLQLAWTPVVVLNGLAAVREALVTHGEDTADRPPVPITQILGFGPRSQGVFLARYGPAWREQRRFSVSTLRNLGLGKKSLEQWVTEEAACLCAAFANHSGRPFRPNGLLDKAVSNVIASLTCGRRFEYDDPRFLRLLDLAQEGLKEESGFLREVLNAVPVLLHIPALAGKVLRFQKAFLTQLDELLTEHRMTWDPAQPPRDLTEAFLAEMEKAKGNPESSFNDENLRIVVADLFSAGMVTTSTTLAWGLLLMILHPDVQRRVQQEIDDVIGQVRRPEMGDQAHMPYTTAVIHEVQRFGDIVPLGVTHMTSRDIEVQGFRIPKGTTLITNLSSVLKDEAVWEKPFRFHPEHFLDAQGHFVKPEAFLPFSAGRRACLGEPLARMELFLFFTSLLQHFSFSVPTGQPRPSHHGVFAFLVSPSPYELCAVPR
A further data set has as its system MCF-7 cells. As to the kind of experiment: In vitro proliferation assay (CellTiter-Glo), MCF-7. The data set is classed as cell-based. As to conditions: Homo sapiens, MCF7; MCF-7 cells (PI3KCA mutation), 72 h; read-out: anti-proliferative IC50, MCF-7. As for the experimental part: (§4) MCF-7, T47D, NCI-H460, HCT116, LNCaP, A431, PC3, PANC-1, A549, HT29M, SKOV-3, Du145, HMEC-1, Hs888Lu, Hela, MDA-MB-231 and SW480 cells were obtained from American Type Culture Collection (ATCC). A2780, PNT2, U251MG, HFFF2 and Fr2 cells were obtained from Public Health England European Collection of Authenticated Cell Cultures (Phe ECACC). InMyoFib and NHLF cells were acquired from Lonza. Cells were then incubated with increasing concentration of inhibitor (1 nM to 100 µM) for 72 h at 37 °C. Cell viability was determined using the CellTiter-Glo Luminescent Cell Viability Assay (Promega). IC50 values were derived as previously stated.
In general terms: Cellular ATP, detected with luciferase, serves as a proxy for viable cell number.

For the next data set, the system named is normal cell lines. As to the kind of experiment: In vitro proliferation assay (CellTiter-Glo), normal cell lines. The data set is classed as cell-based. As to conditions: normal cell lines, 72 h; read-out: anti-proliferative IC50, normal cells. As for the experimental part: as §4
Data set [3] deals with pAKT (Ser473) in MCF-7 cells. Nature of the data set: phospho-AKT (S473) ELISA in MCF-7 cells. The data set is classed as cell-based. As to conditions: Homo sapiens, MCF7, 24h treatment, read-out: EC50 inhibition of phosphorylation of AKT. As to the method: as §3
Background: In an ELISA, binding on a coated surface is turned into a signal by an enzyme label.

The test system of the next data set is pAKT in MCF-7 cells. As to the kind of experiment: Western blot of pAKT and pGSK3β in MCF-7 cells. As to conditions: 1 µM, observed from 1 h after treatment. The data set is classed as cell-based. As for the experimental part: AKT inhibitor treated cell lysates were obtained using RIPA lysis buffer supplemented with protease and phosphatase inhibitor tablets (Roche). Protein samples (30 µg/lane) were run by SDS-PAGE and transferred to Hybond C extra nitrocellulose membranes (Amersham Biosciences) before incubation with the following primary antibodies; pAKT, total AKT, pGSK3β, total GSK3 β, p(Cell Signaling Technologies), Actin (Sigma) or Vinculin (Santa Cruz). Primary antibodies were diluted at 1:1000 (except Actin which was diluted 1:5000). Secondary antibodies were diluted 1:10,000. Blots were visualised using Amersham ECL plus western blot detection system (GE Healthcare) or Odyssey CLx system (LI-COR).

T1 sequence (P31749 whole entry): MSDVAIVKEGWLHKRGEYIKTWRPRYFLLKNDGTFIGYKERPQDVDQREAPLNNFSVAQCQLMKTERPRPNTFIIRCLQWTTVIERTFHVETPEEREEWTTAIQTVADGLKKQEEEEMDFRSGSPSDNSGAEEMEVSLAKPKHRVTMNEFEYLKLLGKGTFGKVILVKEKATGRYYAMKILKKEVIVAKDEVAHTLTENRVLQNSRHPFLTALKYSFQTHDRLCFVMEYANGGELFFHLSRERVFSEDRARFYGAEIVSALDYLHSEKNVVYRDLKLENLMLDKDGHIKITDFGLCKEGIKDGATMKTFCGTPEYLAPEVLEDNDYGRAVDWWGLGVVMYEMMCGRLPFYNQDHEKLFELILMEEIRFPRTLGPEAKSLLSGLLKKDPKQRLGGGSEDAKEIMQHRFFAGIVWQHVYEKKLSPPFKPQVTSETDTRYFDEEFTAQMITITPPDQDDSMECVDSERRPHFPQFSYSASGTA

By IC50 is commonly meant the midpoint of a concentration-inhibition curve. A word on the logD: it is lipophilicity at a set pH, counting ionised and neutral species. Low values mean lower lipophilicity, high ones higher lipophilicity. The EC50 is the concentration that produces a half-maximal response. On to `CCN1C(=O)COc2nc(-c3ccc([C@]4(N)C[C@@H](O)C4)cc3)c(-c3ccccc3)cc21` [ALM301, 6-(4-((1S,3S)-1-amino-3-hydroxycyclobutyl)phenyl)-1-ethyl-7-phenyl-1H-pyrido[2,3-b][1,4]oxazin-2(3H)-one], for which the IC50 at AKT1 (ATP concentration 150 µM, read-out: IC50 vs. AKT1) was 121 nM; at AKT1 (ATP concentration 500 µM, read-out: IC50 vs. AKT1) it was 157 nM; on AKT1 (ATP concentration 1000 µM, read-out: IC50 vs. AKT1), 110 nM; at AKT1 (full length AKT1, read-out: IC50 full length AKT1) it was 125 nM; at AKT1 (read-out: AKT IC50, AKT1), 130 nM; on AKT2 (full length AKT2, read-out: IC50 full length AKT2), 95 nM. For the same compound, the IC50 was 90 nM on AKT2 (read-out: AKT IC50, AKT2); 160 nM in data set [1]; > 25000 nM against CYP 2D6; 2250 nM in the data set on MCF-7 cells; > 20000 nM in the data set on normal cell lines. Besides, in the data set with ∆AKT1, the “inhibition of truncated AKT1 lacking PH domain” value is “not inhibited”. Also, in the data set with ∆AKT2, the “inhibition of truncated AKT2 lacking PH domain” value is on record as “not inhibited”. For the same compound, the logD at 4 h in the data set “LogD7.4 assay” came to 1.2. Also, the microsomal CLint at 1 µM in data set [2] was 6 µL/min/mg. The concentration giving a half-maximal response (EC50) in data set [3] amounted to 470 nM. Moreover, in the data set with pAKT in MCF-7 cells, the “inhibition of AKT phosphorylation (western blot)” value is “sustained up to 48 h”.

For the origin of these results see publication PMC9489722, “Identification and development of a subtype-selective allosteric AKT inhibitor suitable for clinical development” (Scientific Reports, 2022).
